Test results from ChEMBL document CHEMBL5505958, “Optimization of sequence and chiral content enhances therapeutic potential of tilapia piscidin peptides” (Eur J Med Chem, 2024).
≈ marks a conversion by molar mass, not a printed value. Calls of active or inactive are those of the source. The rule behind the calls is not given here.

Assays:
Pseudomonas aeruginosa = test: Bactericidal activity against Pseudomonas aeruginosa 19660 assessed as inhibition of bacterial growth incubated for 16 to 20 hrs in presence of human serum; type: functional; conditions: time 16-20 hrs
Klebsiella pneumoniae [1] = test: Bactericidal activity against Klebsiella pneumoniae BAA 2473 assessed as inhibition of bacterial growth in presence of 0.1 microg/ml of proteinase K (reference value: 1.56 to 3.13 microM); type: functional
Klebsiella pneumoniae [2] = test: Bactericidal activity against Klebsiella pneumoniae TL 297 assessed as inhibition of bacterial growth incubated for 16 to 20 hrs in presence of human serum; type: functional; conditions: time 16-20 hrs
Escherichia coli [3] = test: Antibacterial activity against Escherichia coli 10675 assessed as inhibition of bacterial growth incubated for 16 to 20 hrs in presence of human serum; type: functional; conditions: time 16-20 hrs
Klebsiella pneumoniae [4] = test: Antibacterial activity against Klebsiella pneumoniae BAA 2473 assessed as inhibition of bacterial growth in presence of 0.1 microg/ml of pepsin (reference value: 1.56 to 3.13 microM); type: functional
Acinetobacter baumannii [5] = test: Antibacterial activity against Acinetobacter baumannii 10591 assessed as inhibition of bacterial growth incubated for 16 to 20 hrs in presence of human serum; type: functional; conditions: time 16-20 hrs
Enterococcus faecium [6] = test: Antibacterial activity against Enterococcus faecium 10067 assessed as inhibition of bacterial growth incubated for 16 to 20 hrs; type: functional; conditions: time 16-20 hrs
Salmonella typhimurium [7] = test: Antibacterial activity against Salmonella typhimurium DT104 assessed as inhibition of bacterial growth incubated for 16 to 20 hrs; type: functional, Salmonella enterica subsp. enterica serovar Typhimurium; conditions: Salmonella enterica, time 16-20 hrs
Salmonella typhimurium [8] = test: Bactericidal activity against Salmonella typhimurium DT104 assessed as inhibition of bacterial growth incubated for 16 to 20 hrs; type: functional, Salmonella enterica subsp. enterica serovar Typhimurium; conditions: Salmonella enterica, time 16-20 hrs
Klebsiella pneumoniae [9] = test: Antibacterial activity against Klebsiella pneumoniae BAA 2473 assessed as inhibition of bacterial growth in presence of 10 microg/ml of proteinase K (reference value: 1.56 to 3.13 microM); type: functional
Escherichia coli [10] = test: Antibacterial activity against Escherichia coli 10675 assessed as inhibition of bacterial growth incubated for 16 to 20 hrs; type: functional; conditions: time 16-20 hrs
Enterococcus faecium [11] = test: Bactericidal activity against Enterococcus faecium 10067 assessed as inhibition of bacterial growth incubated for 16 to 20 hrs; type: functional; conditions: time 16-20 hrs
Klebsiella pneumoniae [12] = test: Antibacterial activity against Klebsiella pneumoniae BAA 2473 assessed as inhibition of bacterial growth in presence of 0.1 microg/ml of chymotrypsin (reference value: 1.56 to 3.13 microM); type: functional
Klebsiella pneumoniae [13] = test: Antibacterial activity against Klebsiella pneumoniae BAA 2473 assessed as inhibition of bacterial growth in presence of 10 microg/ml of trypsin (reference value: 1.56 to 3.13 microM); type: functional
Enterococcus faecalis [14] = test: Bactericidal activity against Enterococcus faecalis 10066 assessed as inhibition of bacterial growth incubated for 16 to 20 hrs; type: functional; conditions: time 16-20 hrs
Vibrio vulnificus = test: Antibacterial activity against Vibrio vulnificus 204 assessed as inhibition of bacterial growth incubated for 16 to 20 hrs; type: functional; conditions: time 16-20 hrs
Klebsiella pneumoniae [15] = test: Antibacterial activity against Klebsiella pneumoniae BAA 2473 assessed as inhibition of bacterial growth in presence of 0.1 microg/ml of trypsin (reference value: 1.56 to 3.13 microM); type: functional
Klebsiella pneumoniae [16] = test: Bactericidal activity against Klebsiella pneumoniae BAA 2473 assessed as inhibition of bacterial growth in presence of 1 microg/ml of proteinase K (reference value: 1.56 to 3.13 microM); type: functional
Staphylococcus aureus = test: Bactericidal activity against Staphylococcus aureus 10780 assessed as inhibition of bacterial growth incubated for 16 to 20 hrs in presence of human serum; type: functional; conditions: time 16-20 hrs
Escherichia coli [17] = test: Bactericidal activity against Escherichia coli 10675 assessed as inhibition of bacterial growth incubated for 16 to 20 hrs; type: functional; conditions: time 16-20 hrs
Klebsiella oxytoca = test: Bactericidal activity against Klebsiella oxytoca 13985 assessed as inhibition of bacterial growth incubated for 16 to 20 hrs in presence of human serum; type: functional; conditions: time 16-20 hrs
Salmonella enterica = test: Antibacterial activity against Salmonella enterica 15455 assessed as inhibition of bacterial growth incubated for 16 to 20 hrs; type: functional; conditions: time 16-20 hrs
Klebsiella pneumoniae [18] = test: Induction of morphological changes in Klebsiella pneumoniae BAA 2473 assessed as membrane deformations with protruding granules at by transmission electron microscopy analysis; type: functional, organism-based
Klebsiella pneumoniae [19] = test: Bactericidal activity against Klebsiella pneumoniae BAA 2473 assessed as inhibition of bacterial growth in presence of 10 microg/ml of proteinase K (reference value: 1.56 to 3.13 microM); type: functional
Klebsiella pneumoniae [20] = test: Bactericidal activity against Klebsiella pneumoniae BAA 2473 assessed as inhibition of bacterial growth in presence of 0.1 microg/ml of chymotrypsin (reference value: 1.56 to 3.13 microM); type: functional
Salmonella typhimurium [21] = test: Antibacterial activity against Salmonella typhimurium DT104 assessed as inhibition of bacterial growth incubated for 16 to 20 hrs in presence of human serum; type: functional, Salmonella enterica subsp. enterica serovar Typhimurium; conditions: Salmonella enterica, time 16-20 hrs
Lipopolysaccharide (LPS) = test: Displacement of BODIPY-TR-cadaverine from Klebsiella pneumoniae BAA 2473 lipopolysaccharide (LPS) assessed as increase in fluorescence intensity at 3.125 uM by fluorescence spectrophotometric analysis; type: subcellular
Acinetobacter baumannii [22] = test: Antibacterial activity against Acinetobacter baumannii 10591 assessed as inhibition of bacterial growth incubated for 16 to 20 hrs; type: functional; conditions: time 16-20 hrs
Klebsiella pneumoniae [23] = test: Antibacterial activity against Klebsiella pneumoniae BAA 2473 assessed as inhibition of bacterial growth incubated for 16 to 20 hrs; type: functional; conditions: time 16-20 hrs
Klebsiella pneumoniae [24] = test: Antibacterial activity against Klebsiella pneumoniae BAA 2473 assessed as inhibition of bacterial growth in presence of 10 microg/ml of pepsin (reference value: 1.56 to 3.13 microM); type: functional
Rhizopus arrhizus [25] = test: Antifungal activity against Rhizopus oryzae 34550 assessed as inhibition of fungal growth incubated for 16 to 20 hrs in presence of human serum; type: functional; conditions: time 16-20 hrs
Cell membrane = test: Induction of outer cell membrane permeabilization in Klebsiella pneumoniae BAA 2473 assessed as increase in fluorescence intensity by NPN uptake assay; type: cell membranes
Rhizopus arrhizus [26] = test: Fungicidal activity against Rhizopus oryzae 34550 assessed as inhibition of fungal growth incubated for 72 hrs; type: functional
Klebsiella pneumoniae [27] = test: Bactericidal activity against Klebsiella pneumoniae BAA 2473 assessed as inhibition of bacterial growth in presence of 0.1 microg/ml of pepsin (reference value: 1.56 to 3.13 microM); type: functional
Klebsiella pneumoniae [28] = test: Antibacterial activity against Klebsiella pneumoniae BAA 2473 assessed as inhibition of bacterial growth in presence of 1 microg/ml of proteinase K (reference value: 1.56 to 3.13 microM); type: functional
Enterococcus faecalis [29] = test: Antibacterial activity against Enterococcus faecalis 10066 assessed as inhibition of bacterial growth incubated for 16 to 20 hrs; type: functional; conditions: time 16-20 hrs
Klebsiella pneumoniae [30] = test: Bactericidal activity against Klebsiella pneumoniae 10692 assessed as inhibition of bacterial growth incubated for 16 to 20 hrs; type: functional; conditions: time 16-20 hrs
Klebsiella pneumoniae [31] = test: Antibacterial activity against Klebsiella pneumoniae BAA 2473 assessed as inhibition of bacterial growth in presence of 1 microg/ml of chymotrypsin (reference value: 1.56 to 3.13 microM); type: functional
Klebsiella aerogenes = test: Antibacterial activity against Enterobacter aerogenes 15630 assessed as inhibition of bacterial growth incubated for 16 to 20 hrs; type: functional; conditions: time 16-20 hrs
Klebsiella pneumoniae [32] = test: Bactericidal activity against Klebsiella pneumoniae BAA 2473 assessed as inhibition of bacterial growth in presence of 1 microg/ml of chymotrypsin (reference value: 1.56 to 3.13 microM); type: functional

Row | Compound | MBC (Pseudomonas aeruginosa) | MBC (Klebsiella pneumoniae [1]) | MBC (Klebsiella pneumoniae [2]) | MIC (Escherichia coli [3]) | MIC (Klebsiella pneumoniae [4]) | MIC (Acinetobacter baumannii [5]) | MIC (Enterococcus faecium [6]) | MIC (Salmonella typhimurium [7]) | MBC (Salmonella typhimurium [8]) | MIC (Klebsiella pneumoniae [9]) | MIC (Escherichia coli [10]) | MBC (Enterococcus faecium [11]) | MIC (Klebsiella pneumoniae [12]) | MIC (Klebsiella pneumoniae [13]) | MBC (Enterococcus faecalis [14]) | MIC (Vibrio vulnificus) | MIC (Klebsiella pneumoniae [15]) | MBC (Klebsiella pneumoniae [16]) | MBC (Staphylococcus aureus) | MBC (Escherichia coli [17]) | also measured
1 | H-FIHHIIGGLFSAGKAIHRLIRRRRR-OH | 100 µM | 1.56 µM | > 100 µM | > 100 µM | 1.56 µM | 100 µM | 0.39 µM | 6.25 µM | 6.25 µM | > 100 µM | 6.25 µM | 0.78 µM | 1.56 µM | > 100 µM | 3.13 µM | 3.13 µM | 1.56 µM | > 100 µM | 50 µM | 6.25 µM | MBC (Klebsiella oxytoca): > 100 µM; MIC (Salmonella enterica): 3.13 µM; Activity (Klebsiella pneumoniae [18]): Active; MBC (Klebsiella pneumoniae [19]): > 100 µM; MBC (Klebsiella pneumoniae [20]): 1.56 µM; MIC (Salmonella typhimurium [21]): > 100 µM; Activity (Lipopolysaccharide (LPS)): 95%; MIC (Acinetobacter baumannii [22]): 1.56 µM; MIC (Klebsiella pneumoniae [23]): 1.56 µM; MIC (Klebsiella pneumoniae [24]): > 100 µM; MIC (Rhizopus arrhizus [25]): > 25 µM; Activity (Cell membrane): Active; MFC (Rhizopus arrhizus [26]): 1.56 µM; MBC (Klebsiella pneumoniae [27]): 3.13 µM; MIC (Klebsiella pneumoniae [28]): > 100 µM; MIC (Enterococcus faecalis [29]): 3.13 µM; MBC (Klebsiella pneumoniae [30]): 0.78 µM; MIC (Klebsiella pneumoniae [31]): > 100 µM; MIC (Klebsiella aerogenes): 0.78 µM; MBC (Klebsiella pneumoniae [32]): > 100 µM
2 | CC(C)C[C@H](NC(=O)[C@H](CCCCN)NC(=O)[C@@H](CCCCN)NC(=O)[C@H](CC(C)C)NC(=O)[C@@H](N)Cc1ccccc1)C(=O)N[C@H](CC(C)C)C(=O)N[C@@H](CCCCN)C(=O)N[C@@H](C)C(=O)N[C@H](CC(C)C)C(=O)N[C@@H](Cc1ccccc1)C(=O)N[C@@H](CO)C(=O)N[C@H](C)C(=O)N1CCC[C@H]1C(=O)N[C@@H](CCCCN)C(=O)N[C@H](C)C(=O)N[C@@H](CC(C)C)C(=O)N[C@@H](CCCCN)C(=O)N[C@H](CCCNC(=N)N)C(=O)N[C@@H](CC(C)C)C(=O)N[C@@H](CC(C)C)C(=O)N[C@H](CCCNC(=N)N)C(=O)N[C@@H](CCCNC(=N)N)C(=O)N[C@@H](CCCNC(=N)N)C(=O)N[C@H](CCCNC(=N)N)C(=O)N[C@@H](CCCNC(=N)N)C(=O)O | 6.25 µM | 0.78 µM | 1.56 µM | 0.78 µM | 0.78 µM | 3.13 µM | 3.13 µM (≈ 9.64 µg/mL) | 6.25 µM (≈ 19.2 µg/mL) | 6.25 µM (≈ 19.2 µg/mL) | 0.78 µM | 1.56 µM (≈ 4.8 µg/mL) | 12.5 µM (≈ 38.5 µg/mL) | 0.78 µM | 1.56 µM | > 12.5 µM | 12.5 µM (≈ 38.5 µg/mL) | 0.78 µM | 1.56 µM | 100 µM | 3.13 µM (≈ 9.64 µg/mL) | MBC (Klebsiella oxytoca): 3.13 µM; MIC (Salmonella enterica): 3.13 µM (≈ 9.64 µg/mL); Activity (Klebsiella pneumoniae [18]): Active; MBC (Klebsiella pneumoniae [19]): 0.78 µM; MBC (Klebsiella pneumoniae [20]): 0.78 µM; MIC (Salmonella typhimurium [21]): 3.13 µM; Activity (Lipopolysaccharide (LPS)): 100%; MIC (Acinetobacter baumannii [22]): 3.13 µM (≈ 9.64 µg/mL); MIC (Klebsiella pneumoniae [23]): 0.78 µM (≈ 2.4 µg/mL); MIC (Klebsiella pneumoniae [24]): 0.78 µM; MIC (Rhizopus arrhizus [25]): 3.13 µM; Activity (Cell membrane): Active; MFC (Rhizopus arrhizus [26]): 0.78 µM (≈ 2.4 µg/mL); MBC (Klebsiella pneumoniae [27]): 0.78 µM; MIC (Klebsiella pneumoniae [28]): 0.78 µM; MIC (Enterococcus faecalis [29]): 25 µM (≈ 77 µg/mL); MBC (Klebsiella pneumoniae [30]): 3.13 µM (≈ 9.64 µg/mL); MIC (Klebsiella pneumoniae [31]): 0.78 µM; MIC (Klebsiella aerogenes): 1.56 µM (≈ 4.8 µg/mL); MBC (Klebsiella pneumoniae [32]): 0.78 µM
